Data reported in ChEMBL document CHEMBL5715940 (Curr Biol, 2007).
The source made the active and inactive calls. The rule behind the calls is not given here. Residues, ends and D or L forms follow the SMILES beside them. *: point of attachment. Cbz = O=C(OCc1ccccc1)*

Columns and labels:
[1] = tested on: HeLa; experiment: Induction of mitotic arrest in human HeLa cells with expressing H2B-GFP assessed as cells formed multilobed nuclei at 100 nM; format: functional, cell-based
[2] = target: Serine/threonine-protein kinase PLK1 (Homo sapiens) (UniProt P53350); experiment: Inhibition of Plk1 in human HeLa cells assessed as low level of cyclin B in total lysates of cells arrested in mitosis at 100 nM for 13 hr after the second thymidine release by immunoblot analysis
[3] = tested on: HeLa; experiment: Induction of mitotic arrest in human HeLa cells s stably expressing CENPA-GFP assessed as focus on poles at 10 uM within 10 to 30 mins by live cell imaging analysis; format: functional, cell-based; settings: time 10-30 min
[4] = tested on: HeLa; experiment: Induction of mitotic arrest in human HeLa cells with expressing H2B-GFP assessed as enter the apoptosis at 100 nM; format: functional, cell-based
[5] = tested on: HeLa; experiment: Induction of mitotic arrest in human HeLa cells s stably expressing CENPA-GFP assessed as microtubules instantaneously organized to monopolar spindle at 100 nM for 4 hrs after NEBD by immunofluorescence analysis; format: functional, cell-based
[6] = tested on: HeLa; experiment: Induction of mitotic arrest in human HeLa cells assessed as increase of cell population in prophase incubated for 3 hrs after thymidine release; format: functional, cell-based
[7] = tested on: HeLa; experiment: Induction of mitotic arrest in human HeLa cells s stably expressing CENPA-GFP assessed as appearance of kinetochore pairs lose at 10 uM for 60 mins by live cell imaging analysis; format: functional, cell-based
[8] = tested on: HeLa; experiment: Induction of mitotic arrest in human HeLa cells assessed as weakly centrosome in prometaphase arrested cells at 100 nM for 2 hrs by immunofluorescence analysis; format: functional, cell-based
[9] = tested on: HeLa; experiment: Induction of mitotic arrest in human HeLa cells assessed as cell population in prophase incubated for 4 hrs after thymidine release relative to control relative to control; format: functional
[10] = tested on: HeLa; experiment: Induction of mitotic arrest in human HeLa cells with stably express GFP-tagged histone H2B assessed as chromosome condensation measured at 730 mins after thymidine release; format: functional, cell-based
[11] = tested on: HeLa; experiment: Induction of mitotic arrest in human HeLa cells assessed as appearance of collapse spindle formation at 100 nM for 120 mins after thymidine release in the presence of MG132 by immunofluorescence microscopy; format: functional, cell-based
[12] = tested on: HeLa; experiment: Induction of mitotic arrest in human HeLa cells s stably expressing CENPA-GFP assessed as spindles lost astral microtubules at 10 uM within 10 to 30 mins by live cell imaging analysis; format: functional, cell-based; settings: time 10-30 min
[13] = tested on: HeLa; experiment: Induction of mitotic arrest in human HeLa cells assessed as appearance of kinetochore plates connected to few microtubules and lateral attachment at 100 nM incubated for 2 hrs after cold treatment by transmission electron microscopy; format: functional, cell-based
[14] = tested on: HeLa; experiment: Induction of mitotic arrest in human HeLa cells assessed as appearance of spindles lose the focused poles at 100 nM for 30 mins after thymidine release in the presence of MG132 by immunofluorescence microscopy; format: functional, cell-based
[15] = tested on: HeLa; experiment: Induction of mitotic arrest in human HeLa cells assessed as microtubule structures at 100 nM incubated for 2 hrs after cold treatment by immunofluorescence analysis; format: functional, cell-based
[16] = tested on: HeLa; experiment: Induction of mitotic arrest in human HeLa cells with stably express GFP-tagged histone H2B assessed as decrease in prometaphase after thymidine release; format: functional, cell-based
[17] = tested on: HeLa; experiment: Induction of mitotic arrest in human HeLa cells assessed as increase of cell population in prophase incubated for 6 hrs after thymidine release; format: functional, cell-based
[18] = tested on: HeLa; experiment: Induction of mitotic arrest in human HeLa cells s stably expressing CENPA-GFP assessed as prophase microtubule asters at 100 nM for 4 hr after release by immunofluorescence analysis; format: functional, cell-based
[19] = tested on: HeLa; experiment: Induction of mitotic arrest in human HeLa cells assessed as appearance of shortened spindle formation at 100 nM for 60 mins after thymidine release in the presence of MG132 by immunofluorescence microscopy; format: functional, cell-based
[20] = tested on: HeLa; experiment: Induction of mitotic arrest in human HeLa cells assessed as appearance of kinetochore in opposite side of the chromosomes at 100 nM incubated for 2 hrs after cold treatment by transmission electron microscopy; format: functional, cell-based
[21] = tested on: HeLa; experiment: Induction of mitotic arrest in human HeLa cells s stably expressing CENPA-GFP assessed as spindle poles often broadened at 10 uM for 30 mins by live cell imaging analysis; format: functional, cell-based
[22] = tested on: HeLa; experiment: Induction of mitotic arrest in human HeLa cells s stably expressing CENPA-GFP assessed as appear on mitotic microtubule at 100 nM for 4 hr release after NEBD by immunofluorescence analysis; format: functional, cell-based
[23] = tested on: HeLa; experiment: Induction of mitotic arrest in human HeLa cells with expressing H2B-GFP assessed as cells formed multilobed nuclei at 100 nM in the presence of hesperadin; format: functional, cell-based
[24] = tested on: HeLa; experiment: Induction of mitotic arrest in human HeLa cells stably expressing CENPA-GFP assessed as appearance of shortened spindle formation at 10 uM incubated for 120 mins by live cell imaging analysis; format: functional, cell-based
[25] = tested on: HeLa; experiment: Induction of mitotic arrest in human HeLa cells assessed as dim kinetochore signal in prometaphase arrested cells at 100 nM for 2 hrs by immunofluorescence analysis; format: functional, cell-based
[26] = tested on: HeLa; experiment: Induction of mitotic arrest in human HeLa cells assessed as appearance of kinetochore plates arranged on the spindle center at […] incubated for 2 hrs after cold treatment by transmission electron microscopy; format: functional, cell-based
[27] = tested on: HeLa; experiment: Induction of mitotic arrest in human HeLa cells assessed as appearance of microtubule bundles visible at many kinetochores at […] incubated for 2 hrs after cold treatment by transmission electron microscopy; format: functional, cell-based
[28] = target: Serine/threonine-protein kinase PLK1 (Homo sapiens) (UniProt P53350); settings: HeLa, dose 100.0 nM, time 12.0 min
[29] = tested on: HeLa; experiment: Induction of mitotic arrest in human HeLa cells assessed as K-fibers persisted cells at […] incubated for 2 hrs after cold treatment by immunofluorescence analysis; format: functional, cell-based
[30] = target: Serine/threonine-protein kinase PLK1 (Homo sapiens) (UniProt P53350); settings: HeLa, dose 100.0 nM, time 12.0 min; remark: listed apart in the source
[31] = tested on: HeLa; experiment: Induction of mitotic arrest in human HeLa cells s stably expressing CENPA-GFP assessed as attachment of kinetochores to microtubule at 10 uM for 2 hrs by live cell imaging analysis; format: functional, cell-based
[32] = target: Serine/threonine-protein kinase PLK1 (Homo sapiens) (UniProt P53350); experiment: Inhibition of Plk1 in human HeLa cells assessed as high level of cyclin B in total lysates of cells arrested in mitosis at 50 ng/ml for 13 hr after the second thymidine release by immunoblot analysis

Serine/threonine-protein kinase PLK1 (Homo sapiens), sequence (P53350 whole entry): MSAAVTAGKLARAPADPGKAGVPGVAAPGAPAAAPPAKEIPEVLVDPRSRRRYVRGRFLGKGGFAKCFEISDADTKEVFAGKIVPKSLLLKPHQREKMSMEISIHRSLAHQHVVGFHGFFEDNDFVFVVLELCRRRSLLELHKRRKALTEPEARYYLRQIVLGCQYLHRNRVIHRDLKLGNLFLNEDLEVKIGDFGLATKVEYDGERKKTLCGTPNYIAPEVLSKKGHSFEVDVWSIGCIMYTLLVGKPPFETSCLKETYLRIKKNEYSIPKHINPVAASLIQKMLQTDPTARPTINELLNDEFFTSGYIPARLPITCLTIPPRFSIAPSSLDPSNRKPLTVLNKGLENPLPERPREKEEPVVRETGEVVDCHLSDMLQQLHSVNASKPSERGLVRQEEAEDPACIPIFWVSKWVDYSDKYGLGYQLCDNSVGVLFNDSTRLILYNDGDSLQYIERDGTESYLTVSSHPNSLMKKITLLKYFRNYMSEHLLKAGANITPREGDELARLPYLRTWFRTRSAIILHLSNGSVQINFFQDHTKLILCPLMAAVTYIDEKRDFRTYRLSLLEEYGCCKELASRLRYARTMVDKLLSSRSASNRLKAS

With CCS(=O)(=O)Nc1ccc2c(c1)/C(=C(\Nc1ccc(CN3CCCCC3)cc1)c1ccccc1)C(=O)N2 the Activity [1] was “Active” and the inhibition [2] was “Active”.

CC[C@@H]1C(=O)N(C)c2cnc(Nc3ccc(C(=O)NC4CCN(C)CC4)cc3OC)nc2N1C1CCCC1 [BI-2536] was tested, and the Activity [3] was “Active”, the Activity [4] was “Active” and the Activity [5] was “Active”. The Activity [6] was “Active”, the Activity [7] was “Active” and the Activity [8] was “Active”. The Activity [9] was 30%, the Activity [10] was “Active” and the Activity [11] was “Active”. The Activity [12] was “Active”, the Activity [13] was “Active” and the Activity [14] was “Active”. For the same molecule, the Activity [15] was “inactive”, the Activity [16] was “Active” and the Activity [17] was “Active”. For the same molecule, the Activity [18] was “inactive”, the Activity [19] was “Active” and the Activity [20] was “Active”. The Activity [21] was “Active”, the Activity [22] was “Active” and the Activity [23] was “Active”. For the same molecule, the Activity [24] was “Active” and the Activity [25] was “Active”.

In the case of CCOC(=O)C1=C(C)NC(=S)NC1c1cccc(O)c1 (stereo not drawn) [MONASTROL], the Activity [9] is reported as 5%, the Activity [26] is reported as “Active” and the Activity [27] is reported as “Active”. For the same molecule, the inhibition [28] was “Active”, the Activity [29] was “Active” and the inhibition [30] was “Active”.

In the case of CC(C)C[C@@H](C=O)NC(=O)[C@H](CC(C)C)NC(=O)[C@H](CC(C)C)NC(=O)OCc1ccccc1 (Cbz-Leu-Leu-Leu-aldehyde), the Activity [31] is reported as “Active”.

COC(=O)Nc1nc2cc(C(=O)c3cccs3)ccc2[nH]1 was tested, and the inhibition [32] was “Active”.
